Measured values reported in PMC12145052 (Acta Pharmaceutica Sinica. B, 2025).
Values after ≈ are worked out from the molar mass of the structure shown. Where a SMILES comes first, the peptide text is derived from it. [ ]: non-standard residue; d: D form. Phe(ol) = N[C@H](CO)Cc1ccccc1; Aib = CC(C)(N)C(=O)O

How the values were obtained:
[1] = tested on: MRSA T144; test: Antibacterial test, broth microdilution; assay type: cell-based, methicillin-resistant Staphylococcus aureus; details: Staphylococcus aureus
[2] = tested on: MRSA 1530 (cfr); test: Antibacterial test, broth microdilution; assay type: cell-based, methicillin-resistant Staphylococcus aureus; details: Staphylococcus aureus
[3] = tested on: S. simulans 4; test: Antibacterial test, broth microdilution; assay type: cell-based; details: Staphylococcus simulans
[4] = tested on: MRSA T144; test: Galleria mellonella infection model; assay type: in vivo; details: MRSA T144 5.0 × 10^6 CFUs; 10 mg/kg at 1 h post-infection; n = 7
[5] = tested on: S. aureus ATCC 29213; test: Antibacterial test, broth microdilution; assay type: cell-based, Staphylococcus aureus; details: Fig. S5
[6] = read-out: KD with PG; cited from earlier work

In the case of CN[C@H](CC(C)C)C(=O)N[C@H]1C(=O)N[C@@H](CC(N)=O)C(=O)N[C@H]2C(=O)N[C@H]3C(=O)N[C@H](C(=O)N[C@H](C(=O)O)c4cc(O)cc(O)c4-c4cc3ccc4O)[C@H](O)c3ccc(c(Cl)c3)Oc3cc2cc(c3O[C@@H]2O[C@H](CO)[C@@H](O)[C@H](O)[C@H]2O[C@H]2C[C@](C)(N)[C@H](O)[C@H](C)O2)Oc2ccc(cc2Cl)[C@H]1O [Vancomycin], the MIC [1] is reported as 1 µg/mL (≈ 0.69 µM), the MIC [2] is reported as 1 µg/mL (≈ 0.69 µM) and the MIC [3] is reported as 1 µg/mL (≈ 0.69 µM). The “Bacterial loads in G. mellonella larvae” value [4] was “decreased bacterial loads”.

CC(=O)NC(C)(C)C(=O)N1CCC[C@H]1C(=O)NC(C)(C)C(=O)N[C@@H](C)C(=O)NC(C)(C)C(=O)N[C@@H](C)C(=O)N[C@@H](CCC(N)=O)C(=O)NC(C)(C)C(=O)N[C@H](C(=O)NC(C)(C)C(=O)NCC(=O)N[C@@H](CC(C)C)C(=O)NC(C)(C)C(=O)N1CCC[C@H]1C(=O)N[C@H](C(=O)NC(C)(C)C(=O)NC(C)(C)C(=O)N[C@@H](CCC(=O)O)C(=O)N[C@@H](CCC(N)=O)C(=O)N[C@H](CO)Cc1ccccc1)C(C)C)C(C)C [alamethicin] (Ac-[Aib]P[Aib]A[Aib]AQ[Aib]V[Aib]GL[Aib]PV[Aib][Aib]EQ[Phe(ol)]; N-terminus assumed) gave an MIC [5] of 16 µg/mL (≈ 8.15 µM).

In the case of daptomycin, the Kd [6] is given as 3.1 µM.
